Results: US7932270B2 (Cytokinetics, Inc., priority 2006, dated 2011)

Target: T1, chicken gizzard smooth muscle myosin subfragment-1 chemically crosslinked to cardiac or skeletal actin (Gallus gallus, UniProt P10587)
T1 construct: chicken gizzard smooth muscle myosin subfragment-1; from tissue; host or cells: chicken gizzard
Assay: Smooth muscle myosin ATPase dose response assay (pyruvate kinase/horseradish peroxidase/pyruvate oxidase-coupled, amplex red fluorescence)
Assay type: biochemical
Details: read-out: IC50 Arithmetic Mean
Procedure, shortened: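 Inhibition is measured in a peroxidase/pyruvate oxidase-linked format at pH 7.00 and 22° C, 0.15 mM ATP final. Myosin input is titrated to a target turnover since active fraction differs between preparations.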

T1 sequence (P02607 2-151): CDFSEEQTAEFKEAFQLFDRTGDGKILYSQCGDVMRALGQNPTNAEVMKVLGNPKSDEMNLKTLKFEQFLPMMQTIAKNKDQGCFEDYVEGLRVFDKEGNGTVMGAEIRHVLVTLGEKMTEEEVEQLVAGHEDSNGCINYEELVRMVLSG
T1 sequence (P10587 84-789): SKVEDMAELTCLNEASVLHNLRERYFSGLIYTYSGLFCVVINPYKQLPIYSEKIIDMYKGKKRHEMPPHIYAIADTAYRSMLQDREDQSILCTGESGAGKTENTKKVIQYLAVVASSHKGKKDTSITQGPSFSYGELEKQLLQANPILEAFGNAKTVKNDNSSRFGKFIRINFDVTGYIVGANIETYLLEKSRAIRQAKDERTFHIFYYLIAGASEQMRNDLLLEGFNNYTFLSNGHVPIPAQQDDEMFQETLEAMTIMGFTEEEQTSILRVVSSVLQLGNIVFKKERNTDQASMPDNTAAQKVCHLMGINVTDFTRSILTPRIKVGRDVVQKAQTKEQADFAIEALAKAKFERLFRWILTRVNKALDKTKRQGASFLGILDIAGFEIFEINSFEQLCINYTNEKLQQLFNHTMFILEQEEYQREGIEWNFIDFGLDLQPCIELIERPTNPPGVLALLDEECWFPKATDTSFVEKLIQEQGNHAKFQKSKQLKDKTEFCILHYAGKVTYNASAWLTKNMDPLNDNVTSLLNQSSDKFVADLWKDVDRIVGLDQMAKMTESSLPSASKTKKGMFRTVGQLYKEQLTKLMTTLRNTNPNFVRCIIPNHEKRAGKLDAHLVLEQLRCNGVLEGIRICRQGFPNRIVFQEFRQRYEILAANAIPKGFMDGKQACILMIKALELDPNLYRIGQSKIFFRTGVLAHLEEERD

Row | SMILES | IC50 [nM]
1 | CC(C)(C)OC(=O)N1CCC[C@@H]1CNC(=O)c1cc(C#N)c(-c2cn[nH]c2)nc1NCCc1cccc(F)c1 [tert-butyl (2R)-2-{[(5-cyano-2-{[2-(3-fluorophenyl)ethyl]amino}-6-pyrazol-4-yl(3-pyridyl))carbonylamino]methyl}pyrrolidinecarboxylate] | 6410
2 | Cn1nccc1CNC(=O)c1ccc(-c2ccccc2)nc1NCCc1ccccn1 [N-[(1-methylpyrazol-5-yl)methyl]{6-phenyl-2-[(2-(2-pyridyl)ethyl)amino](3-pyridyl)}carboxamide] | 1300
3 | N#Cc1ccccc1-c1ccc(C(=O)NCCCN2C(=O)CC[C@@H]2CN)c(NCCc2cccc(F)c2)n1 [N-{3-[(5R)-5-(aminomethyl)-2-oxopyrrolidinyl]propyl}(6-(2-cyanophenyl)-2-{[2-(3-fluorophenyl)ethyl]amino}(3-pyridyl))carboxamide] | 4950
4 | O=C(NCc1cccnc1)c1ccc(-c2ccc(CO)s2)nc1NCCc1cccc(F)c1 [(2-{[2-(3-fluorophenyl)ethyl]amino}-6-[5-(hydroxymethyl)(2-thienyl)](3-pyridyl))-N-(3-pyridylmethyl)carboxamide] | 41
5 | C[C@H](CNC(=O)c1cc(F)c(-c2cn[nH]c2)nc1NCCc1cccc(F)c1)NC(=O)OC(C)(C)C [N-{(2R)-2-[(tert-butoxy)carbonylamino]propyl}(5-fluoro-2-{[2-(3-fluorophenyl)ethyl]amino}-6-pyrazol-4-yl(3-pyridyl))carboxamide] | 8210
6 | COc1ccc(CNC(=O)c2ccc(-c3ccccc3C#N)nc2NCCc2cccc(F)c2)cn1 [(6-(2-cyanophenyl)-2-{[2-(3-fluorophenyl)ethyl]amino}(3-pyridyl))-N-[(6-methoxy(3-pyridyl))methyl]carboxamide] | 8100
7 | O=C(NCc1cccnc1)c1ccc(-c2ccccc2)nc1NCCc1c(F)cccc1F [(2-{[2-(2,6-difluorophenyl)ethyl]amino}-6-phenyl(3-pyridyl))-N-(3-pyridylmethyl)carboxamide] | 288
8 | CC(C)(CNC(=O)c1ccc(-c2ccccc2C#N)nc1NCCc1cccc(F)c1)NC(=O)CNC(=O)OC(C)(C)C | 9570
9 | CN1CCCC[C@@H]1CNC(=O)c1ccc(-c2ccccc2C#N)nc1NCCc1cccc(F)c1 [N-[((2R)-1-methyl(2-piperidyl))methyl](6-(2-cyanophenyl)-2-{[2-(3-fluorophenyl)ethyl]amino}(3-pyridyl))carboxamide] | 488
10 | CC(C)(CNC(=O)c1ccc(-c2ccccc2C#N)nc1NCCc1cccc(F)c1)NC=O [N-(2-carbonylamino-2-methylpropyl)(6-(2-cyanophenyl)-2-{[2-(3-fluorophenyl)ethyl]amino}(3-pyridyl))carboxamide] | 151
11 | Cc1cccc(-c2ccc(C(=O)NCc3cccnc3)c(NCCc3ccccn3)n2)c1C [{6-(2,3-dimethylphenyl)-2-[(2-(2-pyridyl)ethyl)amino](3-pyridyl)}-N-(3-pyridylmethyl)carboxamide] | 6940
12 | N#Cc1ccccc1-c1ccc(C(=O)NC[C@@H]2CCC(=O)N2)c(NCCc2cccc(F)c2)n1 [N-[((2S)-5-oxopyrrolidin-2-yl)methyl](6-(2-cyanophenyl)-2-{[2-(3-fluorophenyl)ethyl]amino}(3-pyridyl))carboxamide] | 133
13 | N#Cc1cc(F)ccc1-c1ccc(C(=O)NCc2cccnc2)c(NCCc2cccc(F)c2)n1 [(6-(2-cyano-4-fluorophenyl)-2-{[2-(3-fluorophenyl)ethyl]amino}(3-pyridyl))-N-(3-pyridylmethyl)carboxamide] | 38
14 | NCCCN1C(=O)CC[C@@H]1CNC(=O)c1ccc(-c2cn[nH]c2)nc1NCCc1cccc(F)c1 [N-{[(2R)-1-(3-aminopropyl)-5-oxopyrrolidin-2-yl]methyl}(2-{[2-(3-fluorophenyl)ethyl]amino}-6-pyrazol-4-yl(3-pyridyl))carboxamide] | 966
15 | CC(C)(C)OC(=O)NCC(=O)N1CCC[C@@H]1CNC(=O)c1cc(F)c(-c2ccccc2C#N)nc1NCCc1cccc(F)c1 [N-[((2R)-1-{2-[(tert-butoxy)carbonylamino]acetyl}pyrrolidin-2-yl)methyl](6-(2-cyanophenyl)-5-fluoro-2-{[2-(3-fluorophenyl)ethyl]amino}(3-pyridyl))carboxamide] | 2790
16 | N#Cc1ccccc1-c1ccc(C(=O)NCCN)c(NCCc2cccc(F)c2)n1 [N-(2-aminoethyl)(6-(2-cyanophenyl)-2-{[2-(3-fluorophenyl)ethyl]amino}(3-pyridyl))carboxamide] | 2640
17 | O=C(NCc1cccnc1)c1ccc(-c2ccccc2Cl)nc1NCCc1ccccn1 [{6-(2-chlorophenyl)-2-[(2-(2-pyridyl)ethyl)amino](3-pyridyl)}-N-(3-pyridylmethyl)carboxamide] | 4440
18 | COC(=O)[C@H](N)CNC(=O)c1ccc(-c2ccccc2C#N)nc1NCCc1cccc(F)c1 [methyl (2R)-2-amino-3-[(6-(2-cyanophenyl)-2-{[2-(3-fluorophenyl)ethyl]amino}(3-pyridyl))carbonylamino]propanoate] | 2290
19 | O=C(NCc1cccnc1)c1ccc(-c2ccccc2)nc1NCCc1cccnc1 [{6-phenyl-2-[(2-(3-pyridyl)ethyl)amino](3-pyridyl)}-N-(3-pyridylmethyl)carboxamide] | 2190
20 | Cc1cccc(-c2ccc(C(=O)NCc3cccnc3)c(NCCc3ccccn3)n2)c1 [{6-(3-methylphenyl)-2-[(2-(2-pyridyl)ethyl)amino](3-pyridyl)}-N-(3-pyridylmethyl)carboxamide] | 6270
21 | CC[C@@H](CO)CNC(=O)c1cc(F)c(-c2cnn(C)c2)nc1NCCc1cccc(F)c1 [N-((2R)-2-ethyl-3-hydroxypropyl)(5-fluoro-2-{[2-(3-fluorophenyl)ethyl]amino}-6-(1-methylpyrazol-4-yl)(3-pyridyl))carboxamide] | 39
22 | O=C(NC[C@H]1CCCN1C(=O)CCCO)c1ccc(-c2cn[nH]c2)nc1NCCc1cccc(F)c1 [N-{[(2R)-1-(4-hydroxybutanoyl)pyrrolidin-2-yl]methyl}(2-{[2-(3-fluorophenyl)ethyl]amino}-6-pyrazol-4-yl(3-pyridyl))carboxamide] | 963
23 | N#Cc1ccccc1-c1ccc(C(=O)NCC2CCCN(CCN)C2=O)c(NCCc2cccc(F)c2)n1 (stereo not shown) [N-{[1-(2-aminoethyl)-2-oxo(3-piperidyl)]methyl}(6-(2-cyanophenyl)-2-{[2-(3-fluorophenyl)ethyl]amino}(3-pyridyl))carboxamide] | 31
24 | COC(=O)[C@H](C)CNC(=O)c1cc(F)c(-c2cnn(C)c2)nc1NCCc1cccc(F)c1 [methyl (2R)-3-[(5-fluoro-2-{[2-(3-fluorophenyl)ethyl]amino}-6-(1-methylpyrazol-4-yl)(3-pyridyl))carbonylamino]-2-methylpropanoate] | 100
25 | N#Cc1ccccc1-c1ccc(C(=O)NC[C@H]2CCCN2CCCN)c(NCCc2cccc(F)c2)n1 | 1390

The remaining compounds from weak to strong by IC50, led by results:

Row | IC50 [nM] | SMILES
26 | 16600 | N#Cc1ccccc1-c1ccc(C(=O)NCCCN2C(=O)CC[C@H]2CN=[N+]=[N-])c(NCCc2cccc(F)c2)n1
27 | 13100 | Cn1cc(-c2ccc(C(=O)NC[C@@H]3CNCC(=O)N3)c(NCCc3cccc(F)c3)n2)cn1 [N-[((2S)-6-oxopiperazin-2-yl)methyl](2-{[2-(3-fluorophenyl)ethyl]amino}-6-(1-methylpyrazol-4-yl)(3-pyridyl))carboxamide]
28 | 11600 | COC(=O)N1CCNC[C@@H]1CNC(=O)c1ccc(-c2ccccc2C#N)nc1NCCc1cccc(F)c1 [methyl (2R)-2-{[(6-(2-cyanophenyl)-2-{[2-(3-fluorophenyl)ethyl]amino}(3-pyridyl))carbonylamino]methyl}piperazinecarboxylate]
29 | 4060 | Cc1cscc1-c1ccc(C(=O)NCc2cccnc2)c(NCCc2ccccn2)n1 [{6-(4-methyl(3-thienyl))-2-[(2-(2-pyridyl)ethyl)amino](3-pyridyl)}-N-(3-pyridylmethyl)carboxamide]
30 | 1500 | N#Cc1ccccc1-c1ccc(C(=O)NCc2ccc(C(F)(F)F)cn2)c(NCCc2cccc(F)c2)n1 [(6-(2-cyanophenyl)-2-{[2-(3-fluorophenyl)ethyl]amino}(3-pyridyl))-N-{[5-(trifluoromethyl)(2-pyridyl)]methyl}carboxamide]
31 | 994 | N#Cc1ccccc1-c1ccc(C(=O)NCCCN)c(NCCc2cccc(F)c2)n1 [N-(3-aminopropyl)(6-(2-cyanophenyl)-2-{[2-(3-fluorophenyl)ethyl]amino}(3-pyridyl))carboxamide]
32 | 532 | CN(C)C(=O)CNC(=O)c1ccc(-c2ccccc2C#N)nc1NCCc1cccc(F)c1 [2-[(6-(2-cyanophenyl)-2-{[2-(3-fluorophenyl)ethyl]amino}(3-pyridyl))carbonylamino]-N,N-dimethylacetamide]
33 | 519 | COC(=O)CCC(=O)N1CC[C@@H]1CNC(=O)c1ccc(-c2ccccc2C#N)nc1NCCc1cccc(F)c1 [methyl 4-((2R)-2-{[(6-(2-cyanophenyl)-2-{[2-(3-fluorophenyl)ethyl]amino}(3-pyridyl))carbonylamino]methyl}azetidinyl)-4-oxobutanoate]
34 | 399 | C[C@@H](N)CNC(=O)c1ccc(-c2ccccc2C#N)nc1NCCc1cccc(F)c1 [N-((2R)-2-aminopropyl)(6-(2-cyanophenyl)-2-{[2-(3-fluorophenyl)ethyl]amino}(3-pyridyl))carboxamide]
35 | 224 | Cn1cc(-c2nc(NCCc3cccc(F)c3)c(C(=O)NCC(C)(C)CO)cc2F)cn1 [(5-fluoro-2-{[2-(3-fluorophenyl)ethyl]amino}-6-(1-methylpyrazol-4-yl)(3-pyridyl))-N-(3-hydroxy-2,2-dimethylpropyl)carboxamide]
36 | 100 | C[C@H](CNC(=O)c1cc(F)c(-c2cnn(C)c2)nc1NCCc1cccc(F)c1)NC(=O)CCCNC(=O)OC(C)(C)C
37 | 7 | N#Cc1ccccc1-c1ccc(C(=O)NCc2cccc(NCCN)n2)c(NCCc2cccc(F)c2)n1 [N-({6-[(2-aminoethyl)amino](2-pyridyl)}methyl)(6-(2-cyanophenyl)-2-{[2-(3-fluorophenyl)ethyl]amino}(3-pyridyl))carboxamide]
